Experimental data from patent US6727244B2, “Mammalian metabolites of a tachykinin receptor antagonist” (Merck & Co., Inc., priority 2000, dated 2004).

Test: oxidative metabolism in liver microsomes from humans
Type: in vitro ADME
Details: human liver microsomes, 15 min incubation
Protocol: All liver microsomal and cytosolic fractions were prepared using the following procedure. Thawed livers were homogenized with 2 volumes of 50 mM Tris-buffer (pH 7.5) containing 1.15% KCl. For microsomal and cytosolic preparations, the homogenate was centrifuged for 20 min at 9,000×g and the resulting supernatant was centrifuged for 60 min at 105,000×g. The resulting cytosolic fractions were re-centrifuged at 105,000×g for 60 min. Fractions of cytosol were aliquoted into small tubes and stored at −70° C. Subsequently, the microsomal pellets were washed with 10 mM EDTA containing 1.15% KCl and were centrifuged at 105,000×g for 60 min. Washed microsomes were resuspended in 10 mM potassium phosphate buffer (pH 7.4) containing 250 mM sucrose, aliquoted into small tubes, and stored at −70° C. Protein concentrations were determined by a modified Lowry assay (Smith et al., 1985). The specific cytochrome P450 content in each microsomal preparation was measured as described by Omura and Sato, J. Biol. Chem. 239, 2370-2378 (1964). […]
Method A was conducted on a Shimadzu HPLC system (Shimadzu Scientific Instruments Inc., Columbia Md.). The parent compounds and their metabolites were monitored directly using a radiometric detector (INUS Systems Inc. Tampa, Fla.) and Ultima-Flow M (Packard Instrument Co., Meridan Conn.) as scintillant at a flow rate of 3 mL/min. […]

parent compound remained after incubation: ~50%
Compound: C[C@@H](O[C@H]1OCCN[C@H]1c1ccc(F)cc1)c1cc(C(F)(F)F)cc(C(F)(F)F)c1 [Metabolite M-1, (2R,3S)-2-[(1R)-1-[3,5-bis(trifluoromethyl)phenyl]ethoxy]-3-(4-fluorophenyl)morpholine]
